The results in this text go back to patent US20050282843A1, “Therapeutic applications of 2-substituted 4-heteroarylpyrimidines” (priority 2002, published 2005).

Where two headings read alike, the source gives them in different places. A value given as a limit tells only on which side of the number the result lay.

Series [1] concerns the target GSK-3β (Oryctolagus cuniculus, UniProt G1T8E2). Description: GSK-3β kinase assay (phosphorylation of CREB phosphopeptide). Format: biochemical, rabbit. As to the method: (§1) GSK-3 was obtained from New England Biolabs (UK) Ltd., Hitchin, Herts. The recombinant enzyme was isolated from a strain of E. coli that carries a clone expressing GSK-3β derived from a rabbit skeletal muscle cDNA library [Wang, Q. M.; Fiol, C. […] The samples were transferred to 96-well p81 filter plates (Whatman Polyfiltronics, Kent, UK), and the plates were washed 4 times with 200 μL/well of 75 mM aq orthophosphoric acid.

Series [2] relates to GSK-3β. The series is described as above. Format: biochemical, rabbit. Conditions: ratio of IC50 values. The protocol: as §1
For a further series, the target named is T1, CDK2/cyclin E (Homo sapiens, UniProt P24941).
T1 construct: His6; made in house; host or cells: Sf9 insect cells (baculovirus)
Description: CDK/cyclin kinase assay, CDK2/cyclin E. Format: biochemical. Conditions: read-out: Kinase inhibition IC50 CDK2/E.

The next series concerns the target CDK4/cyclin D1 (Homo sapiens, UniProt P11802). Description: CDK/cyclin kinase assay, CDK4/cyclin D1.
For series [3], the system named is cellular glycogen synthase activity in HEK293 cells. The experiment in a line: Glycogen synthase (GS) assay in HEK293 cells. The series is classed as cell-based, human. Conditions: for -Fold induction of GS activity: In HEK293 cells at [compound] = 5 μM, over control samples. As to the method:
(§2) Cells on 10 cm dishes (Human Embryonic Kidney (HEK) 293 cells, L6 rat myocytes, or 3T3 mouse adipocytes) were treated with different concentrations of GSK3-inhibitors or DMSO vehicle for 90 min. Incubation medium was removed and cells were washed with ice-cold phosphate-buffered saline (PBS) prior to lysis on ice in 50 mM HEPES, pH 7.5, 10 mM EDTA, 100 mM NaF, 5 mM DTT, protease inhibitor cocktail (Sigma). After a freeze/thaw cycle the samples are sonicated for 10 sec and centrifuged at 15,000 g for 10 min at 4° C. Lysate supernatants were snap-frozen on liquid nitrogen and stored at −80° C. Lysates were assayed for glycogen synthase activity in buffer (50 mM Tris-HCl, pH 7.8, 20 mM EDTA, 25 mM NaF, 5 mM DTT, 1% glycogen, 0.3 mM UDP-glucose and 0.06 μCi of [^14C]-UDP-glucose in the presence of 0.1 or 10 mM glucose-6-phosphate. The reaction was carried out for 30 min at 30° C. 70 μL of the reaction mixture (total volume 90 μL) were transferred to a GFC 96-well filter plate (bottom sealed with foil), containing 140 μL 96% ethanol. The GFC plate was incubated for 1 h on ice and than washed with 66% ethanol. To each well 100 μL scintillant liquid was added and the radioactivity of the samples was measured using a scintillation counter (Topcount, HP). Data are expressed as -fold increase in glycogen synthase activity ratios over those of control samples.

Another series has as its target CDK2/cyclin A (Homo sapiens, UniProt P24941). Description: CDK/cyclin kinase assay, CDK2/cyclin A.
Another series has as its target CDK1/cyclin B1 (Homo sapiens, UniProt P06493). The experiment in a line: CDK/cyclin kinase assay, CDK1/cyclin B1.
In series [4] the test system is cellular glycogen synthase activity in 3T3 mouse adipocyte cells. Description: Glycogen synthase (GS) assay in 3T3 mouse adipocytes. Format: cell-based. As to the method: Mouse pre-adipocytes 3T3-F442A were seeded at 9×10^5 cells per 10 cm dish in DMEM 10% FCS, containing penicillin/streptomycin. When 90% confluent, the same medium was supplemented with […] insulin. After 3-5 days (when most cells were differentiated) insulin was removed and 4 days later the cells were ready to use.
as §2

Series [5] has as its system cellular glycogen synthase activity in L6 rat myocyte cells. The experiment in a line: Glycogen synthase (GS) assay in L6 rat myocytes. Format: cell-based. As to the method: Rat skeletal muscle myoblasts L6/G8.C5 were seeded at 2.4×10^5 cells per 10 cm dish in DMEM 10% foetal calf serum (FCS), containing penicillin/streptomycin. When 90% confluence was reached the medium was exchanged with α MEM, supplemented with 2% FCS and penicillin/streptomycin. Medium was refreshed every 48 hours and 4-7 days later the myocytes were formed.
as §2

Setting [6] is: read-out: Kinase inhibition IC50 GSK3β.
The mark [7] stands for this setting: read-out: IC50 value as measured by a GSK3β kinase assay.

Chain of CDK1/cyclin B1 (P06493 whole entry): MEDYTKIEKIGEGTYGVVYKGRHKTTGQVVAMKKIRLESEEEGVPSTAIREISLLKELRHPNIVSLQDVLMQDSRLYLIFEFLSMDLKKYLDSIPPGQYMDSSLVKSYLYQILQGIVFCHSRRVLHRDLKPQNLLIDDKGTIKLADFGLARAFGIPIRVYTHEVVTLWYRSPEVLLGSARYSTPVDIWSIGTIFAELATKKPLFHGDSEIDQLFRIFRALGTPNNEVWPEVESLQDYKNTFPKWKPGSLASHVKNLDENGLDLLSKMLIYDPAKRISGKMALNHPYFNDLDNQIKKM
Chain of CDK1/cyclin B1 (P14635 whole entry partner): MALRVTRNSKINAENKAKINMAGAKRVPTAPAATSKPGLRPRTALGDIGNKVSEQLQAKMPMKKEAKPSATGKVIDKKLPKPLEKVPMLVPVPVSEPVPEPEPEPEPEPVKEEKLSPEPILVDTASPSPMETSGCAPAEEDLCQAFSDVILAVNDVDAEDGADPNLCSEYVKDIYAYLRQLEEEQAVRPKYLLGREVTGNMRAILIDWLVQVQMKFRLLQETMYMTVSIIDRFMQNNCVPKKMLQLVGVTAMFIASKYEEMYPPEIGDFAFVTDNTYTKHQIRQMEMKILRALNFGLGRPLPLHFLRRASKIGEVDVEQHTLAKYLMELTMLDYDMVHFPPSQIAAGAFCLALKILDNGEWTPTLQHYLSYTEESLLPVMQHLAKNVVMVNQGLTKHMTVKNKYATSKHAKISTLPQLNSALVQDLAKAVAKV
Chain of CDK4/cyclin D1 (P11802 whole entry): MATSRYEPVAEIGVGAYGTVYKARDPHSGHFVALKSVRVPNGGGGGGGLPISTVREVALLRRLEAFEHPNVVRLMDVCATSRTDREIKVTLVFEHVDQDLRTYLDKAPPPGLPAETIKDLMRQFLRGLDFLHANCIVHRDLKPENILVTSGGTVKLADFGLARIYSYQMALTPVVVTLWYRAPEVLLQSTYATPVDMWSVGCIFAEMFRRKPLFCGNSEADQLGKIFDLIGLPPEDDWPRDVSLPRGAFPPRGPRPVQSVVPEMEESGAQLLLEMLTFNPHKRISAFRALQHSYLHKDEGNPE
Chain of CDK4/cyclin D1 (P24385 whole entry partner): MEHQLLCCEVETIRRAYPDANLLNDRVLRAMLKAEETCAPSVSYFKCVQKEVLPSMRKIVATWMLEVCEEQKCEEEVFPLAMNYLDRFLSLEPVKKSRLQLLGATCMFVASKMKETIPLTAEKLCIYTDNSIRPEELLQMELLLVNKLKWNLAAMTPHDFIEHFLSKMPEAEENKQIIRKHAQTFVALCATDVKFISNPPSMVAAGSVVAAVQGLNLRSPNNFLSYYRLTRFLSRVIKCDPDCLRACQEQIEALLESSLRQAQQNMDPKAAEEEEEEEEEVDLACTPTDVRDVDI
Chain of GSK-3β (Oryctolagus cuniculus, UniProt G1T8E2) (G1T8E2 1-432): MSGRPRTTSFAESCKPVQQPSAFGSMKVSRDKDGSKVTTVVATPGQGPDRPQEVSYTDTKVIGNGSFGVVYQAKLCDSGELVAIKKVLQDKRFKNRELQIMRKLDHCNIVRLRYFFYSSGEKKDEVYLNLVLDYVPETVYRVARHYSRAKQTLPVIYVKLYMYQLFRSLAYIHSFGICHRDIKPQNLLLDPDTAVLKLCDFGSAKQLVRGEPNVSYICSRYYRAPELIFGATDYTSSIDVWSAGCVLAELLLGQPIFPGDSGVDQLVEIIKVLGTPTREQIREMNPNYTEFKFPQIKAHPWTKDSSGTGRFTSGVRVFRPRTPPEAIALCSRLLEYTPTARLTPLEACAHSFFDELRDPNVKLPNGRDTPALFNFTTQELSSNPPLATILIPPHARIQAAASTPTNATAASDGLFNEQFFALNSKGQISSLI
Description for CDK1/cyclin B1: (§3) His6-tagged recombinant human cyclin-dependant kinases CDK1/cyclin B1, CDK2/cyclin E, CDK2/cyclin A, and CDK4 were expressed in sf9 insect cells using a baculovirus expression system. Recombinant cyclin D1 was expressed in E. coli. […] Kinase assays were performed in 96-well plates using recombinant CDK/cyclins. […] Reactions were stopped on ice, followed by filtration through p81 or GF/C filterplates (for CDK4) (Whatman Polyfiltronics, Kent, UK). After washing 3 times with 75 mM aq orthophosphoric acid, plates were dried, scintillant added and incorporated radioactivity measured in a scintillation counter (TopCount, Packard Instruments, Pangbourne, Berks, UK). Compounds for kinase assays were made up as 10 mM stocks in DMSO and diluted into 10% DMSO in assay buffer.
Description for CDK2/cyclin A: as §3
Description for CDK2/cyclin E: as §3
Description for CDK4/cyclin D1: as §3

Take `Cc1cc(Nc2nccc(-c3c(C)[nH]c(C#N)c3C)n2)ccc1Cl` [Compound 9, 4-[2-(4-Chloro-3-methyl-phenylamino)-pyrimidin-4-yl]-3,5-dimethyl-1H-pyrrole-2-carbonitrile]: the melting point fell in the range of 194.2 to 197.9 °C. On GSK-3β [1] (setting [6]), the IC50 was determined as 3400 nM. The “Selectivity, IC50 (CDK2/E)/IC50 (GSK3β)” value in the series on GSK-3β [2] turned out to be 0.3. Moreover, on CDK2/cyclin E, the IC50 stood at 1000 nM. The compound further came in with an IC50 against CDK4/cyclin D1 of 4000 nM.
For `Cc1[nH]c([N+](=O)[O-])c(C)c1-c1ccnc(Nc2ccc(N(C)C)cc2)n1` [Compound 15, N-[4-(2,4-Dimethyl-5-nitro-1H-pyrrole-3-yl)-pyrimidin-2-yl]-N′,N′-dimethyl-benzene-1,4-diamine], in that order: 265 to 268 °C, 950 nM, 1.0, 960 nM and 1000 nM.
For `Cc1[nH]c(Br)c(C)c1-c1ccnc(Nc2cccc([N+](=O)[O-])c2)n1` [Compound 17, [4-(5-Bromo-2,4-dimethyl-1H-pyrrole-3-yl)-pyrimidin-2-yl]-(3-nitro-phenyl)-amine], the melting point was 198.1 to 203 °C. The IC50 at GSK-3β [1] (setting [7]) was under 1000 nM. Moreover, the IC50 at GSK-3β [1] (setting [6]) came out at 280 nM. Besides, the “Selectivity, IC50 (CDK2/E)/IC50 (GSK3β)” value in the series on GSK-3β [2] turned out to be 1.3. At CDK2/cyclin E, the IC50 came out at 370 nM. Further, the IC50 at CDK4/cyclin D1 is 4000 nM.
Turning to `Cc1c(-c2ccnc(Nc3ccc(N(C)C)c([N+](=O)[O-])c3)n2)c(C)n(C)c1C#N` [Compound 39, 4-[2-(4-Dimethylamino-3-nitro-phenylamino)-pyrimidin-4-yl]-1,3,5-trimethyl-1H-pyrrole-2-carbonitrile], the “-Fold induction of GS activity” value in series [3] is reported as 3.0 -fold. Also, the IC50 against CDK2/cyclin A was 220 nM; against CDK1/cyclin B1 it was 180 nM; at GSK-3β [1] (setting [7]), under 100 nM; on GSK-3β [1] (setting [6]), 19 nM; on CDK2/cyclin E it was 160 nM; against CDK4/cyclin D1 it was 1400 nM. Also, in the series with GSK-3β [2], the “Selectivity, IC50 (CDK2/E)/IC50 (GSK3β)” value worked out at 8.4.
Turning to `Cc1c(-c2ccnc(Nc3ccc(N(C)C)cc3)n2)c(C)n(C)c1C#N` [Compound 38, 4-[2-(4-Dimethylamino-phenylamino)-pyrimidin-4-yl]-1,3,5-trimethyl-1H-pyrrole-2-carbonitrile], the “-Fold induction of GS activity” value in series [3] is 1.3 -fold. In addition, the IC50 against CDK2/cyclin A was 930 nM; on CDK1/cyclin B1 it was 2800 nM; at GSK-3β [1] (setting [6]), 120 nM; at CDK2/cyclin E, 1100 nM; on CDK4/cyclin D1, 1300 nM. Further, the “Selectivity, IC50 (CDK2/E)/IC50 (GSK3β)” value in the series with GSK-3β [2] was determined as 9.2.
`Cc1[nH]c(C#N)c(C)c1-c1ccnc(Nc2ccc(N(C)C)cc2)n1` [Compound 12, 4-[2-(4-Dimethylamino-phenylamino)-pyrimidin-4-yl]-3,5-dimethyl-1H-pyrrole-2-carbonitrile] showed a melting point of 190.6 to 193.7 °C. Further, in series [3], the “-Fold induction of GS activity” value is 1.2 -fold. Moreover, at GSK-3β [1] (setting [6]), the IC50 was found to be 1200 nM. Besides, the “Selectivity, IC50 (CDK2/E)/IC50 (GSK3β)” value in the series with GSK-3β [2] was 0.5. On CDK2/cyclin E, the IC50 came to 540 nM. At CDK4/cyclin D1, this compound had an IC50 of 370 nM.
`Cc1ccc(Nc2nccc(-c3c(C)[nH]c(C#N)c3C)n2)cc1I` [Compound 8, 4-[2-(3-Iodo-4-methyl-phenylamino)-pyrimidin-4-yl]-3,5-dimethyl-1H-pyrrole-2-carbonitrile] had a melting point of 189.5 to 191.7 °C. Also, the IC50 on GSK-3β [1] (setting [6]) turned out to be 1800 nM. Moreover, the “Selectivity, IC50 (CDK2/E)/IC50 (GSK3β)” value in the series on GSK-3β [2] was 0.5. Moreover, on CDK2/cyclin E, the IC50 is 860 nM. At CDK4/cyclin D1, this compound displayed an IC50 of 980 nM.
For `Cc1[nH]c(C#N)c(C)c1-c1ccnc(Nc2ccc(I)cc2)n1` [Compound 5, 4-[2-(4-Iodo-phenylamino)-pyrimidin-4-yl]-3,5-dimethyl-1H-pyrrole-2-carbonitrile], in that order: 178.3 to 181.2 °C, 1500 nM, 0.4, 550 nM and 1100 nM.
In turn, `Cc1[nH]c(C#N)c(C)c1-c1ccnc(Nc2ccc(C(F)(F)F)cc2)n1` [Compound 4, 3,5-Dimethyl-4-[2-(4-trifluoromethyl-phenylamino)-pyrimidin-4-yl]-1H-pyrrole-2-carbonitrile] yielded a melting point of 195.6 to 198.9 °C. For the same compound, the IC50 at GSK-3β [1] (setting [6]) was 2400 nM. For the same compound, the “Selectivity, IC50 (CDK2/E)/IC50 (GSK3β)” value with GSK-3β [2] is reported as 0.1. For the same compound, the IC50 on CDK2/cyclin E was 180 nM. At CDK4/cyclin D1, the IC50 was found to be 2500 nM.
In turn, `Cc1ccc(Nc2nccc(-c3sc(=O)n(C)c3C)n2)cc1[N+](=O)[O-]` [Compound 36, 3,4-Dimethyl-5-[2-(4-methyl-3-nitro-phenylamino)-pyrimidin-4-yl]-3H-thiazol-2-one] had a melting point of 88.4 to 91.6 °C. The “-Fold induction of GS activity” value in series [3] was 3.0 -fold. Besides, the IC50 against CDK1/cyclin B1 worked out at 200 nM. For the same compound, at GSK-3β [1] (setting [7]), the IC50 is under 100 nM. Besides, the IC50 at GSK-3β [1] (setting [6]) is 30 nM. Moreover, the “Selectivity, IC50 (CDK2/E)/IC50 (GSK3β)” value in the series on GSK-3β [2] came to 4.5. In addition, the IC50 on CDK2/cyclin E is 110 nM.
For `COc1ccc(Nc2nccc(-c3sc(=O)n(C)c3C)n2)cc1` [Compound 24, 5-[2-(4-Methoxy-phenylamino)-pyrimidin-4-yl]-3,4-dimethyl-3H-thiazol-2-one], the IC50 stood at 700 nM against CDK2/cyclin A; 970 nM against CDK1/cyclin B1; 1100 nM on GSK-3β [1] (setting [6]); 760 nM at CDK2/cyclin E; 1100 nM at CDK4/cyclin D1. Besides, the “Selectivity, IC50 (CDK2/E)/IC50 (GSK3β)” value with GSK-3β [2] is recorded as 0.7.
As to `Cc1c(-c2ccnc(Nc3ccc(F)c([N+](=O)[O-])c3)n2)sc(=O)n1C` [Compound 28, 5-[2-(4-Fluoro-3-nitro-phenylamino)-pyrimidin-4-yl]-3,4-dimethyl-3H-thiazol-2-one], the IC50 is 80 nM against CDK2/cyclin A; 1030 nM at CDK1/cyclin B1; under 10 nM at GSK-3β [1] (setting [7]); 2 nM on GSK-3β [1] (setting [6]); 170 nM on CDK2/cyclin E; 1800 nM against CDK4/cyclin D1. In addition, the “Selectivity, IC50 (CDK2/E)/IC50 (GSK3β)” value in the series with GSK-3β [2] amounted to 85.
`Cc1[nH]c([N+](=O)[O-])c(C)c1-c1ccnc(Nc2ccc(N(C)C)c([N+](=O)[O-])c2)n1` [Compound 21, N^4-[4-(2,4-Dimethyl-5-nitro-1H-pyrrole-3-yl)-pyrimidin-2-yl]-N^1,N^1-dimethyl-2-nitro-benzene-1,4-diamine]: the “activity of glycogen synthase, fractional reaction velocity (ratio of activity at 0.1 and 10 mM glucose-6 phosphate)” value was “increased the activity of glycogen synthase” in series [3] (HEK293 cells, dose-dependent, FIG. 1); “increased the activity of glycogen synthase” in series [4] (mouse adipocyte cells, dose-dependent, FIG. 1); “increased the activity of glycogen synthase” in series [5] (rat myocyte cells, dose-dependent, FIG. 1). Moreover, the “-Fold induction of GS activity” value in series [3] is listed as 3.3 -fold. Further, the “activation of GS” value in series [4] (adipocytes, at 1 μM) is 4 -fold; in series [5] (myocytes, at 1 μM) it was 2 -fold. Further, the IC50 is 250 nM on CDK2/cyclin A; 300 nM against CDK1/cyclin B1; under 100 nM at GSK-3β [1] (setting [7]); 40 nM at GSK-3β [1] (setting [6]); 140 nM at CDK2/cyclin E; 1020 nM on CDK4/cyclin D1. For the same compound, the “Selectivity, IC50 (CDK2/E)/IC50 (GSK3β)” value in the series with GSK-3β [2] was 3.5.

What is called melting point is the temperature of the solid-liquid transition.
